Experimental data taken from patent US4785001A, “Ergoline esters” (Farmitalia Carlo Erba S.p.A., priority 1986, dated 1988).

Legend:
[1] = electroencephalographic effects (EEG) in the rat; assay type: in vivo; conditions: 20 mg/Kg p.o.
Description: Moreover, the compound prepared in Example 1 was tested at the dose of 20 mg/Kg p.o. in the rat and the electroencephalographic effects (EEG) were observed. […] See Buonamici, M., Young, G. A. and Khazon (1982), Neuropharmacology, 21 : 825-829.

[2] = orientative acute toxicity (LD50), p.o. mice; conditions: mouse, in vivo, po

Structure (SMILES): CO[C@]12C[C@@H](COC(=O)C3=CN(C)C=CC3)CN(C)[C@@H]1Cc1cn(C)c3cccc2c13 [Example 1, 10-Methoxy-,1,6-dimethyl-8β-(1-methyl-,1,4-dihydro-3-pyridyl-carbonyloxymethyl)-ergoline]
- electroencephalographic effects (EEG) [1]: increased and long-lasting modifications
- LD50 [2]: > 800 mg/kg
